# Laboratory results taken from article PMC7587962, “Evaluation of Cytotoxicity and α-Glucosidase Inhibitory Activity of Amide and Polyamino-Derivatives of Lupane Triterpenoids” (Molecules, 2020).
# How the values were obtained:
# CCRF-CEM = assay: NCI-60 SRB screen: leukemia CCRF-CEM; type: cell-based; settings: Homo sapiens, 48 h
# HL-60(TB) = assay: NCI-60 SRB screen: leukemia HL-60(TB); type: cell-based; settings: Homo sapiens, 48 h, HL-60(TB)
# MOLT-4 = assay: NCI-60 SRB screen: leukemia MOLT-4; type: cell-based; settings: Homo sapiens, 48 h, MOLT-4
# RPMI-8226 = assay: NCI-60 SRB screen: leukemia RPMI-8226; type: cell-based; settings: Homo sapiens, 48 h, RPMI-8226
# SR = assay: NCI-60 SRB screen: leukemia SR; type: cell-based; settings: Homo sapiens, 48 h
# HOP-92 = assay: NCI-60 SRB screen: non-small cell lung cancer HOP-92; type: cell-based, human; settings: HOP-92
# NCI-H460 = assay: NCI-60 SRB screen: non-small cell lung cancer NCI-H460; type: cell-based; settings: Homo sapiens, 48 h, NCI-H460
# COLO 205 = assay: NCI-60 SRB screen: colon cancer COLO 205; type: cell-based, human; settings: COLO 205
# HCT-116 = assay: NCI-60 SRB screen: colon cancer HCT-116; type: cell-based; settings: Homo sapiens, 48 h, HCT-116
# SF-295 = assay: NCI-60 SRB screen: CNS cancer SF-295; type: cell-based, human; settings: SF-295
# SNB-75 = assay: NCI-60 SRB screen: CNS cancer SNB-75; type: cell-based, human; settings: SNB-75
# U251 = assay: NCI-60 SRB screen: CNS cancer U251; type: cell-based; settings: Homo sapiens, U251
# LOX IMVI = assay: NCI-60 SRB screen: melanoma LOX IMVI; type: cell-based, human
# M14 = assay: NCI-60 SRB screen: melanoma M14; type: cell-based, human; settings: M14
# MDA-MB-435 = assay: NCI-60 SRB screen: melanoma MDA-MB-435; type: cell-based, human; settings: MDA-MB-435
# SK-MEL-5 = assay: NCI-60 SRB screen: melanoma SK-MEL-5; type: cell-based, human; settings: SK-MEL-5
# UACC-257 = assay: NCI-60 SRB screen: melanoma UACC-257; type: cell-based, human; settings: UACC-257
# UACC-62 = assay: NCI-60 SRB screen: melanoma UACC-62; type: cell-based, human; settings: UACC-62
# IGROV1 = assay: NCI-60 SRB screen: ovarian cancer IGROV1; type: cell-based, human; settings: IGROV1
# OVCAR-3 = assay: NCI-60 SRB screen: ovarian cancer OVCAR-3; type: cell-based, human; settings: OVCAR-3
# OVCAR-5 = assay: NCI-60 SRB screen: ovarian cancer OVCAR-5; type: cell-based, human; settings: OVCAR-5
# OVCAR-8 = assay: NCI-60 SRB screen: ovarian cancer OVCAR-8; type: cell-based, human; settings: OVCAR-8
# NCI/ADR-RES = assay: NCI-60 SRB screen: ovarian cancer NCI/ADR-RES; type: cell-based, human
# A498 = assay: NCI-60 SRB screen: renal cancer A498; type: cell-based, human; settings: A498
# ACHN = assay: NCI-60 SRB screen: renal cancer ACHN; type: cell-based, human
# RXF 393 = assay: NCI-60 SRB screen: renal cancer RXF 393; type: cell-based, human; settings: RXF 393
# SN12C = assay: NCI-60 SRB screen: renal cancer SN12C; type: cell-based, human
# TK-10 = assay: NCI-60 SRB screen: renal cancer TK-10; type: cell-based, human; settings: TK-10
# DU-145 = assay: NCI-60 SRB screen: prostate cancer DU-145; type: cell-based, human; settings: DU-145
# MCF7 = assay: NCI-60 SRB screen: breast cancer MCF7; type: cell-based; settings: Homo sapiens, 48 h, MCF7
# MDA-MB-231/ATCC = assay: NCI-60 SRB screen: breast cancer MDA-MB-231/ATCC; type: cell-based; settings: Homo sapiens, 48 h
# HS 578T = assay: NCI-60 SRB screen: breast cancer HS 578T; type: cell-based, human; settings: HS 578T
# [1] = test system: 60 human tumor cell lines; settings: single dose 10 µM
# CNS cancer subpanel = assay: NCI-60 screen, subpanel CNS cancer
# Colon Cancer subpanel = assay: NCI-60 screen, subpanel Colon Cancer
# Breast cancer subpanel = assay: NCI-60 screen, subpanel Breast cancer
# Prostate cancer subpanel = assay: NCI-60 screen, subpanel Prostate cancer
# [2] = single dose 10 µM, read-out: Percentage Cell Growth
# [3] = five concentrations, SRB, read-out: GI50
# [4] = Homo sapiens, five concentrations, 48 h, SRB, read-out: GI50
compound,measurement,setting,value
C=C(C)[C@@H]1CC[C@]2(C(=O)NCCNCCNCCN)CC[C@]3(C)[C@H](CC[C@@H]4[C@@]5(C)CCC(=O)C(C)(C)[C@@H]5CC[C@]43C)[C@@H]12 [Compound 11],activity at 10 µM,CCRF-CEM; [2],-11.3%
same,GI50,CCRF-CEM; [3],9.65 µM
same,activity at 10 µM,HL-60(TB); [2],-35.6%
same,GI50,HL-60(TB); [3],8.88 µM
same,activity at 10 µM,MOLT-4; [2],-16.3%
same,GI50,MOLT-4; [3],6.96 µM
same,activity at 10 µM,RPMI-8226; [2],-30.7%
same,GI50,RPMI-8226; [3],6.78 µM
same,activity at 10 µM,SR; [2],4.96%
same,GI50,SR; [3],5.91 µM
same,Percentage Cell Growth,HOP-92; single dose 10 µM,−65.19%
same,GI50,HOP-92; [4],2.93 µM
same,activity at 10 µM,NCI-H460; [2],-90.9%
same,GI50,NCI-H460; [3],9.4 µM
same,Percentage Cell Growth,COLO 205; single dose 10 µM,−47.48%
same,GI50,COLO 205; [4],8.74 µM
same,activity at 10 µM,HCT-116; [2],-80.7%
same,GI50,HCT-116; [3],6.65 µM
same,GI50,SF-295; [4],9.42 µM
same,Percentage Cell Growth,SF-295; single dose 10 µM,−54.47%
same,GI50,SNB-75; [4],6.26 µM
same,Percentage Cell Growth,SNB-75; single dose 10 µM,−41.55%
same,activity at 10 µM,"U251; U-251, 48 h, single dose 10 µM, read-out: Percentage Cell Growth",-81.8%
same,GI50,"U251; U-251, five concentrations, 48 h, SRB, read-out: GI50",7.34 µM
same,GI50,LOX IMVI; [4],8.72 µM
same,Percentage Cell Growth,LOX IMVI; single dose 10 µM,−68.23%
same,GI50,M14; [4],8.38 µM
same,Percentage Cell Growth,M14; single dose 10 µM,−62.82%
same,GI50,MDA-MB-435; [4],8.7 µM
same,Percentage Cell Growth,MDA-MB-435; single dose 10 µM,−49.89%
same,GI50,SK-MEL-5; [4],6.98 µM
same,Percentage Cell Growth,SK-MEL-5; single dose 10 µM,−86.18%
same,GI50,UACC-257; [4],7.91 µM
same,Percentage Cell Growth,UACC-257; single dose 10 µM,−10.66%
same,GI50,UACC-62; [4],8.96 µM
same,Percentage Cell Growth,UACC-62; single dose 10 µM,−77.94%
same,GI50,"IGROV1; Homo sapiens, IGROV-1, five concentrations, 48 h, SRB, read-out: GI50",6.42 µM
same,Percentage Cell Growth,IGROV1; single dose 10 µM,−84.81%
same,GI50,OVCAR-3; [4],7.65 µM
same,Percentage Cell Growth,OVCAR-3; single dose 10 µM,−72.48%
same,GI50,OVCAR-5; [4],8.78 µM
same,Percentage Cell Growth,OVCAR-5; single dose 10 µM,−44.11%
same,GI50,OVCAR-8; [4],8.41 µM
same,Percentage Cell Growth,OVCAR-8; single dose 10 µM,−75.03%
same,GI50,NCI/ADR-RES; [4],8.41 µM
same,Percentage Cell Growth,NCI/ADR-RES; single dose 10 µM,−73.33%
same,Percentage Cell Growth,A498; single dose 10 µM,80.81%
same,GI50,A498; [4],42.6 µM
same,GI50,ACHN; [4],13.8 µM
same,Percentage Cell Growth,ACHN; single dose 10 µM,−83.29%
same,GI50,RXF 393; [4],5.6 µM
same,Percentage Cell Growth,RXF 393; single dose 10 µM,−71.88%
same,GI50,SN12C; [4],7.56 µM
same,Percentage Cell Growth,SN12C; single dose 10 µM,−88.48%
same,GI50,TK-10; [4],10.1 µM
same,Percentage Cell Growth,TK-10; single dose 10 µM,−77.68%
same,Percentage Cell Growth,DU-145; single dose 10 µM,−56.67%
same,GI50,DU-145; [4],7.47 µM
same,activity at 10 µM,MCF7; [2],-58%
same,GI50,MCF7; [3],7.38 µM
same,activity at 10 µM,"MDA-MB-231/ATCC; MDA-MB-231/ATCC, single dose 10 µM, read-out: Percentage Cell Growth",-92.4%
same,GI50,"MDA-MB-231/ATCC; MDA-MB-231, MDA-MB-31/ATCC, five concentrations, SRB, read-out: GI50",8.03 µM
same,Percentage Cell Growth,HS 578T; single dose 10 µM,47.76%
same,GI50,HS 578T; [4],8.3 µM
same,"cancer cell lethality, range of percentage growth",[1]; cell lines with negative growth,−4.36% to −96.35%
same,cases of cancer cell lethality,[1]; number of cell lines,50
same,"MID b, average sensitivity of all cell line of particular subpanel",CNS cancer subpanel,7.76 µM
same,"Selectivity, ratio MID a: MID b",CNS cancer subpanel,1.18
same,"MID b, average sensitivity of all cell line of particular subpanel",Colon Cancer subpanel,7.68 µM
same,"Selectivity, ratio MID a: MID b",Colon Cancer subpanel,1.19
same,"MID b, average sensitivity of all cell line of particular subpanel",Breast cancer subpanel,8.04 µM
same,"Selectivity, ratio MID a: MID b",Breast cancer subpanel,1.14
same,"MID b, average sensitivity of all cell line of particular subpanel",Prostate cancer subpanel,6.87 µM
same,"Selectivity, ratio MID a: MID b",Prostate cancer subpanel,1.33
